This note sets out measurements from patent US20110098492A1, “CLEANING COMPOSITIONS CONTAINING MID-RANGE ALKOXYLATES” (priority 2008, published 2011).

Data set [1] is described as follows: Surface tension and critical micelle concentration (Wilhelmy plate). Format: physicochemical. To be noted: for Surface Tension: 0.1 wt % in water; for Critical Micelle Concentration: in de-ionized water. The method, then:
B) Surface Tension and Critical Micelle Concentration (CMC) Measurement. For this test the surface tension of a surfactant-water solution is measured while incrementally adding the surfactant to de-ionized water. Results are measured in terms of dyne/centimeters using a Wilhelmy plate. Results are recorded versus surfactant concentration. The Critical Micelle Concentration is the point at which an increase in surfactant concentration no longer results in a change in surface tension.

Data set [2] is described as follows: Ross-Miles foam height test (ASTM D1173). The class given is physicochemical. The conditions noted are these: for Ross Miles Foam Height, millimeters, Initial: Initial (0 sec). On the procedure:
A) Ross-Miles Foam Height Test: This test is carried out according to the protocol of ASTM […].

Data set [3] can be described thus: Pour point test (ASTM D97). Format: physicochemical. The method, then: C) Pour Point Test: This test is carried out according to the protocol of ASTM Test D97.
The nature of data set [4]: Gel range in water at 23 C. The class given is physicochemical. Also on record: key: L = Liquid; G = Gel; TL = Thick Liquid. On the procedure: One way the industry expresses a tendency of a surfactant to cause gels is a “gel range.” A typical gel range describes a percentage of samples that form gels, out of a number of samples, each having increasing surfactant concentration. […] A sample forms a gel when it is non-pourable for at least five seconds at 23° centigrade (° C.) when its container is inverted 180° so the container's open spout or mouth faces down. For many applications, a surfactant ideally has no gel range.
D) Gel range: Ten surfactant solutions are made using 0%, 10%, 20%, 30%, 40%, 50%, 60%, 70%, 80%, 90% water. […] The test is run at 23 C.

For another data set, the system named is Desmondesmus subspicatus. Briefly: Fresh water algal growth inhibition test (OECD 201). Format: cell-based. The conditions noted are these: growth rate. An excerpt: Organization for Economic Cooperation and Development (OECD): OECD Guidelines for the Testing of Chemicals, “Freshwater Alga and Cyanobacteria, Growth Inhibition Test”, Procedure 201, adopted 23 Mar. 2006; European Economic Community (EEC): […] OECD Guidelines for the Testing of Chemicals, “Freshwater Alga and Cyanobacteria, Growth Inhibition Test”, Procedure 201, adopted 23 Mar. 2006; European Economic Community (EEC): […]

A further data set has as its system Daphna magna. Description: 48-hour acute toxicity to Daphnia. Format: in vivo. From the text:
The study procedures and test methods were based on the recommendations of the following guidelines: […]

The nature of data set [5]: Cleaning of cross-linked triglycerides (Gardner scrubber, soiled vinyl tile). To be noted: for Arbitrary Gray Value: 120 back-and-forth strokes, higher = better cleaning; for cleaning of cross-linked triglycerides (in words): aqueous solution, compared with NP-9 / APEs. Also on record: key to Arbitrary Gray Value: mean gray value of tile image (ImageJ). The method, then: Test panels coated with mixtures of triglycerides and cross-linked triglycerides were prepared and evaluated using the following procedure. Cobalt Naphthenate was used as a catalyst to accelerate the oxidation of vegetable oil to give a hard varnish. Carbon black is added to the varnish to enable easy visual comparison of the ability to clean the cross-linked triglyceride from the surface.
Substrate Panels: White Vinyl Floor Tile: Tarket Corporation Azrock™ VS304-3 (6913) cut to 4¼×4¼ inch (to fit the Gardner Linear Motion Scrubber).
Soil Formulation: 100 grams Canola Oil (Food Grade, 100%, Kroger Co. Cincinnati, Ohio 45202); 2 grams Acetylene Carbon Black (Cat #39724, Alfa Aesar; Surface area=74 sq m/g); 20 grams drying agent: Cobalt Naphthenate Solution (Aldrich Cat #54,457-4, CAS #61789-51-3) (Comes as a 6% solution in petroleum solvent); Oven: Convection oven set at 160° F.
Scrubbing Tester: Gardco washability & Wear Tester; Linear Motion Test Equipment; Model D12-V Cat #WA-2164 (Paul N. Gardner Company, Inc. 316 N.E. First Street, Pompano, Beach, Fla. 33060.
Sponges: “Do-It” Cellulose Sponge, 1⅝ in thick, cut to 3″×4″. Manufactured by Bloch/New England for HWI, Fort Wayne, Ind. 46801;
Paint Brushes: Economy Chip Brush 1 Inch. www.lgsourcing.com Model #0106; Item #103407 obtained from Lowes, Inc. L. G. Sourcing, Inc. P.O. Box 1535 North Wilkseboro, N.C. 28659
Reflectance Meter: HunterLab ColorQuest XE
Prepare a stock solution by mixing 98 grams of canola oil (food grade) with 2.0 g acetylene-based carbon black (Cat #39724, Alfa Aesar; Surface area=74 sq m/g). Mix with a disperser at 2000 rpm for 15 min. (We used a Caframo Model BDC 3030 with a 0.50 dispersing blade).
Add 20.0 grams Cobalt Naphthenate Solution and mix well (by hand, using a glass stir rod).
Place 1.6 grams soil per 4×4 inch tile.
Paint to a thin film using a clean 1-inch economy brush. Use several strokes to get to an even coating. Use a clean, dry brush for each application. (After the application, each brush can be cleaned with acetone, dried, and then re-used).
Place in a convection oven set at 160 F for 16 hours. We place the panels in an oven at 4:00 p.m, and then remove the panels at 8:00 a.m. the next morning. Let the panels cool for 1 hour.
Use the panels within 10 days
Place a panel in the Gardner Scrubber
[…] (We use 5.0 grams surfactant diluted to 500 mL water).
Prepare a sponge by rinsing several times in cold tap water. Completely squeeze out the sponge by hand.
After each test, rinse out the sponge 15-20 times (by repeated sorption and squeezing) until there is no noticeable surfactant solution left (usually indicated by a lack of foam).
Pour 500 mL of surfactant solution into a beaker
Place the sponge into the beaker—allowing it to soak up as much surfactant as possible.
Place the sponge into the Gardner Scrubber.
Pour the remaining liquid (approx 400 mL) over the test panel in the scrubber. There should be enough liquid to just cover the test panel.
Program the scrubber to perform 120 back-and-forth strokes (for a total of 240 linear strokes). We define each back-and-forth stroke as “1 stroke”
Remove the panel rinse with tap water
Clean the Gardner scrubber by rinsing with tap water.
Clean the sponge by squeezing it out under tap water 20-30 times until clean.
Remove excess water from the sponge by squeezing as much liquid out as possible.
After the panel is dry, either take pictures (for visual comparison of cleaning) or measure the reflectance using the Xyy mode of a Hunter Colorimeter. Alternatively, the mean gray value can be obtained by taking a picture of the tiles and processing computer image with ImageJ™ software, which is distributed freely by the National Institute of Health (nih.gov).

The next data set deals with Sicklepod. Description: Greenhouse herbicide adjuvant efficacy with glyphosate. The class given is in vivo. To be noted: adjuvant 0.25% v/v in spray, visual injury at 18 DAA. The method, then:
Efficacy of Examples 7 and 8 as adjuvants in formulated herbicides is compared to commercially available herbicide packages. Greenhouse field testing is completed. A 480 g ae/L (acid equivalent per liter) formulation of glyphosate isopropylamine with no adjuvants is added to spray vials. These aliquots are diluted to a final volume of 60 ml with tap water, and appropriate amounts of adjuvants are added to the spray solution. The Examples 7 and 8 series are tested at 0.25% v/v in the final spray solution. Treatment rates are: 200, 400, and 600 g ae/ha (“ha” means hectare) and each treatment is replicated three times. Treatments are applied with a tracksprayer. The sprayer utilizes an 8002E spray nozzle, spray pressure of 262 kPa pressure and speed of 2.2 mph to deliver 140 L/Ha. The nozzle height is 46 cm above the pots. Percent visual injury assessments are made at 18 DAA (days after application) on a scale of 0 to 100% as compared to the untreated control plants (where 0 is equal to no injury and 100 is equal to complete death of the plant). Results are shown in Table 10 as % Control of Sicklepod with Glyphosate compared to commercial herbicides.

Data set [6] is described as follows: Formula stability with LAS, sodium citrate and water. The class given is physicochemical. Also on record: key to Formula stability: S = Stable; U = Unstable. An excerpt:
When mixed with dodecyl benzene sulfonic acid (sodium salt), and sodium citrate in water, the surfactants of the present invention show enhanced formula stability relative to conventional surfactants.

The nature of a further data set: Cloud point. The class given is physicochemical.

As for 2EH(PO)2(EO)4 [Example 1], in data set [1], the “Surface Tension” value amounted to 35 dyne/centimeters and the Critical Micelle Concentration turned out to be 3300 ppm. Further, in [2], the “Ross Miles Foam Height, millimeters, 5 Minutes” value worked out at 5 millimeters and the “Ross Miles Foam Height, millimeters, Initial” value stood at 110 millimeters.

Turning to 2EH(PO)3(EO)6.8 [Example 2], the “Pour Point” value in [3] amounted to 50 ° F. Further, the “Gel Range, Percent Surfactant in Water at 23 C.” value (from here on “Gel Range, Percent Surfactant”) in [4] (10% surfactant in water), in data set [4] (20% surfactant in water), in data set [4] (30% surfactant in water), in data set [4] (40% surfactant in water), in [4] (50% surfactant in water) and in data set [4] (60% surfactant in water) was “L” each time. For the same substance, the “Gel Range, Percent Surfactant” value in data set [4] (70% surfactant in water), in [4] (80% surfactant in water) and in data set [4] (90% surfactant in water) was “L” in each case. Further, the “Surface Tension” value in [1] came out at 32 dyne/centimeters. Further, in data set [1], the Critical Micelle Concentration was 2400 ppm. For the same substance, the “Ross Miles Foam Height, millimeters, 5 Minutes” value in data set [2] was 5 millimeters. The “Ross Miles Foam Height, millimeters, Initial” value in [2] stood at 115 millimeters.

Consider 2EH(PO)5(EO)3 [Example 6], for which, in the data set on Desmondesmus subspicatus, the “Fresh Water algal growth inhibition test with Desmondesmus subspicatus ErC50/0-3” value came out at 31.9 mg/L. The “48-hour Acute Toxicity to Daphna magna (EC50-50 hour)” value in the data set with Daphna magna came out at 33.6 µg/mL.

With 2EH(PO)5(EO)6 [Example 7], the “Arbitrary Gray Value” in data set [5] (0.5% by weight in water) turned out to be 106; in [5] (1% by weight in water), 179. Also, the “cleaning of cross-linked triglycerides (in words)” value was “performs as well as NP-9” in data set [5]; “performs as well and NP-9” in data set [5] (listed as 2EH(PO)5(EO)6). For the same substance, the results for the “% Control of Sicklepod with Glyphosate” value with Sicklepod (200 G/ha glyphosate), in the data set with Sicklepod (400 G/ha glyphosate) and with Sicklepod (600 G/ha glyphosate) were 66.7%, 81.7% and 98.3%, respectively.

Turning to 2EH(PO)9(EO)9 [Example 4], the “Pour Point” value in [3] turned out to be 37 ° F. In addition, the “Gel Range, Percent Surfactant” value in data set [4] (10% surfactant in water) is given as “L”; in [4] (20% surfactant in water), “L”; in data set [4] (30% surfactant in water), “L”; in [4] (40% surfactant in water) it was “TL”; in data set [4] (50% surfactant in water) it was “G”; in [4] (60% surfactant in water) it was “G”. In addition, the “Gel Range, Percent Surfactant” value in data set [4] (70% surfactant in water) is “G”; in data set [4] (80% surfactant in water), “G”; in data set [4] (90% surfactant in water), “L”. In addition, in [1], the “Surface Tension” value stood at 30 dyne/centimeters. Besides, the Critical Micelle Concentration in data set [1] is 400 ppm. In addition, the “Ross Miles Foam Height, millimeters, 5 Minutes” value in [2] was 5 millimeters. For the same substance, the “Ross Miles Foam Height, millimeters, Initial” value in data set [2] was 50 millimeters.

Regarding 2EH(PO)11(EO)11 [Example 5], the Formula stability entry is “S” in [6] (15% LAS/0% Na Cit in water), “S” in data set [6] (15% LAS/1% Na Cit in water), “S” in [6] (15% LAS/2% Na Cit in water) and “U” in [6] (15% LAS/4% Na Cit in water). Further, the “formula stability (in words)” value in data set [6] (cleaning formulations, without hydrotrope) is “stable”. Besides, the “Pour Point” value in data set [3] stood at 36 ° F. Moreover, the “Gel Range, Percent Surfactant” value in data set [4] (10% surfactant in water) was “L”; in data set [4] (20% surfactant in water), “L”; in data set [4] (30% surfactant in water), “L”; in data set [4] (40% surfactant in water), “G”; in data set [4] (50% surfactant in water), “G”; in data set [4] (60% surfactant in water), “G”. For the same substance, the “Gel Range, Percent Surfactant” value in data set [4] (70% surfactant in water) is “G”; in data set [4] (80% surfactant in water), “G”; in [4] (90% surfactant in water) it was “L”. Also, the “Surface Tension” value in [1] was determined as 30 dyne/centimeters. Besides, the Critical Micelle Concentration in data set [1] was 300 ppm. Besides, the “Ross Miles Foam Height, millimeters, 5 Minutes” value in [2] came to 15 millimeters. The “Ross Miles Foam Height, millimeters, Initial” value in [2] is 75 millimeters.

C8-16(PO)2.5(EO)5 [reference compound]: the “Arbitrary Gray Value” in data set [5] (0.5% by weight in water) is reported as 48.

Substance C9(BO)1(EO)5 had a cloud point in the data set “Cloud point” of 21.4 C.

Consider C9(BO)1(EO)6, for which the cloud point in the data set “Cloud point” was found to be 38.5 C.

In the data set “Cloud point”, C9(PO)4(EO)5.5 had a cloud point of 31.0 C.

Turning to C9(PO)4(EO)6.8, the cloud point in “Cloud point” came out at 43.0 C.

For the substance C9(PO)4(EO)8 [Example 10], the “Fresh Water algal growth inhibition test with Desmondesmus subspicatus ErC50/0-3” value in the data set with Desmondesmus subspicatus is reported as 26 mg/L. In addition, the “48-hour Acute Toxicity to Daphna magna (EC50-50 hour)” value with Daphna magna worked out at 29.2 µg/mL. In “Cloud point”, this substance displayed a cloud point of 55.3 C.

Regarding C12-14(EO)5 [reference compound], the “Arbitrary Gray Value” in data set [5] (1% by weight in water) is given as 68.
